Measurements as given in the supplement of paper PMC10307832.

Experiments:
Test in all cases: relative viability (nuclei count vs DMSO), 5 days (fraction); higher = more cells survive
Ibrutinib + Palbociclib = compound: C=CC(=O)N1CCC[C@@H](n2nc(-c3ccc(Oc4ccccc4)cc3)c3c(N)ncnc32)C1 [Ibrutinib] + CC(=O)c1c(C)c2cnc(Nc3ccc(N4CCNCC4)cn3)nc2n(C2CCCC2)c1=O [Palbociclib] (partner 0.5 µM)
Procedure, shortened: (§1)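 Lung cancer cell lines were pin-tool dosed in 1536-well plates on the day after seeding, with either a lone drug or a fixed anchor-drug dose plus five library-drug doses (not always all listed) in √10 steps. Nuclei were counted on 4× images after 5 days. Relative viability is the ratio of treated-well to vehicle-well nuclei counts, with each value a median of duplicate plates.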

Ibrutinib + Dasatinib = compound: C=CC(=O)N1CCC[C@@H](n2nc(-c3ccc(Oc4ccccc4)cc3)c3c(N)ncnc32)C1 [Ibrutinib] + Cc1nc(Nc2ncc(C(=O)Nc3c(C)cccc3Cl)s2)cc(N2CCN(CCO)CC2)n1 [Dasatinib] (partner 0.075 µM)
Procedure, shortened: as §1

BMX-IN-1 + OSI-027 = compound: C=CC(=O)Nc1cc(-n2c(=O)ccc3cnc4ccc(-c5ccc(NS(C)(=O)=O)cc5)cc4c32)ccc1C [BMX-IN-1] + COc1cccc2cc(-c3nc([C@H]4CC[C@H](C(=O)O)CC4)n4ncnc(N)c34)[nH]c12 [OSI-027] (partner 0.5 µM)
Procedure, shortened: as §1

PAC-1 + Olaparib = compound: C=CCc1cccc(/C=N/NC(=O)CN2CCN(Cc3ccccc3)CC2)c1O [PAC-1] + O=C(c1cc(Cc2n[nH]c(=O)c3ccccc23)ccc1F)N1CCN(C(=O)C2CC2)CC1 [Olaparib] (partner 8 µM)
Procedure, shortened: as §1

Cell Line | relative viability (Ibrutinib + Palbociclib; first compound 0.005 µM) | relative viability (Ibrutinib + Palbociclib; first compound 0.01581 µM) | relative viability (Ibrutinib + Palbociclib; first compound 0.05 µM) | relative viability (Ibrutinib + Palbociclib; first compound 0.1581 µM) | relative viability (Ibrutinib + Palbociclib; first compound 0.5 µM) | relative viability (Ibrutinib + Dasatinib; first compound 0.005 µM) | relative viability (Ibrutinib + Dasatinib; first compound 0.01581 µM) | relative viability (Ibrutinib + Dasatinib; first compound 0.05 µM) | relative viability (Ibrutinib + Dasatinib; first compound 0.1581 µM) | relative viability (Ibrutinib + Dasatinib; first compound 0.5 µM) | relative viability (BMX-IN-1 + OSI-027; first compound 0.02 µM) | relative viability (BMX-IN-1 + OSI-027; first compound 0.2 µM) | relative viability (BMX-IN-1 + OSI-027; first compound 0.6325 µM) | relative viability (BMX-IN-1 + OSI-027; first compound 2 µM) | relative viability (PAC-1 + Olaparib; first compound 0.02 µM) | relative viability (PAC-1 + Olaparib; first compound 0.06325 µM) | relative viability (PAC-1 + Olaparib; first compound 0.2 µM) | relative viability (PAC-1 + Olaparib; first compound 2 µM)
NCI-H1975 | 0.546 | 0.446 | 0.502 | 0.457 | 0.17 | 0.349 | 0.293 | 0.263 | 0.345 | 0.134 | 0.873 | 0.741 | 1.04 | 0.696 | 0.779 | 0.809 | 0.811 | 0.703
NCI-H1993 | 0.388 | 0.56 | 1.64 | 0.714 | 0.466 | 0.504 | 0.658 | 0.532 | 0.53 | 0.56 | 0.546 | 0.6 | 0.489 | 0.476 | 1.12 | 1.16 | 0.684 | 0.961
NCI-H2009 | 0.136 | 0.214 | 0.183 | 0.169 | 0.288 | 0.3 | 0.254 | 0.319 | 0.267 | 0.386 | 0.689 | 0.651 | 0.639 | 0.386 | 0.681 | 0.655 | 0.677 | 0.652
NCI-H2023 | 0.33 | 0.292 | 0.346 | 0.41 | 0.311 | 0.578 | 0.546 | 0.532 | 0.55 | 0.516 | 0.448 | 0.434 | 0.418 | 0.244 | 0.468 | 0.425 | 0.449 | 0.257
NCI-H2085 | 0.467 | 0.469 | 0.425 | 0.47 | 0.44 | 0.26 | 0.254 | 0.219 | 0.202 | 0.216 | 0.743 | 0.748 | 0.696 | 0.745 | 0.728 | 0.74 | 0.74 | 0.831
NCI-H2087 | 0.243 | 0.217 | 0.161 |  |  | 1.11 | 0.91 | 1.01 |  | 0.951 | 0.624 | 0.712 | 0.589 | 0.485 | 0.53 | 0.504 | 0.579 | 0.451
NCI-H2126 | 0.348 | 0.322 | 0.34 | 0.342 | 0.345 | 0.506 | 0.57 | 0.546 | 0.574 | 0.623 | 0.696 | 0.703 | 0.872 | 0.664 | 0.896 | 0.871 | 0.941 | 0.886
NCI-H2170 | 0.329 | 0.296 | 0.259 | 0.385 | 0.139 | 0.464 | 0.413 | 0.209 | 0.447 | 0.211 | 0.735 | 0.803 | 0.79 | 0.769 | 0.557 | 0.632 | 0.562 | 0.542
NCI-H2228 | 0.912 | 0.687 | 0.697 | 0.947 | 0.779 | 0.584 |  | 0.553 | 0.5 | 0.428 | 0.595 | 0.673 | 0.789 | 0.529 | 0.619 | 0.607 | 0.619 | 0.646
NCI-H2342 | 0.495 | 0.519 | 0.496 | 0.486 | 0.502 | 0.314 | 0.315 | 0.294 | 0.279 | 0.276 | 0.687 | 0.649 | 0.608 | 0.585 | 0.442 | 0.474 | 0.367 | 0.525
NCI-H2347 | 0.391 | 0.386 | 0.478 | 0.492 | 0.428 |  | 0.298 | 0.274 | 0.188 | 0.302 | 0.39 | 0.356 | 0.525 | 0.38 | 0.544 | 0.622 | 0.551 | 0.515
NCI-H2405 | 0.49 | 0.514 |  |  | 0.525 | 0.232 | 0.19 | 0.189 | 0.206 | 0.237 | 0.647 | 0.63 | 0.605 | 0.634 | 0.879 | 0.894 | 0.922 | 0.94
NCI-H3122 | 0.188 | 0.178 | 0.184 | 0.176 | 0.196 | 0.816 | 0.841 | 0.699 | 0.676 | 0.771 | 1.23 | 1.1 | 1.3 | 1.1 | 0.635 | 0.634 | 0.624 | 0.566
PC-3 [JPC-3] | 0.585 | 0.527 | 0.515 | 0.54 | 0.486 | 0.865 | 0.862 | 0.774 | 0.979 | 0.327 | 0.783 | 0.887 | 0.84 | 0.793 | 1.04 | 1.15 | 1.1 | 1.09
PC-14 | 0.527 | 0.495 | 0.576 | 0.575 | 0.172 |  | 0.228 | 0.209 | 0.312 | 0.0569 | 1.46 | 1.19 | 0.994 | 0.0726 | 0.255 | 0.275 | 0.288 | 0.298
RERF-LC-KJ | 1.12 | 0.915 | 0.928 | 1.09 | 0.931 | 0.936 | 0.637 | 0.757 | 0.85 | 0.88 | 0.626 | 0.612 | 0.587 | 0.278 | 0.891 | 0.86 | 0.929 | 0.83
SK-LU-1 | 0.372 | 0.365 | 0.392 | 0.407 | 0.365 | 0.179 | 0.162 | 0.17 | 0.183 | 0.162 | 0.345 | 0.316 | 0.42 | 0.298 | 0.405 | 0.465 | 0.455 | 0.414
SW 900 | 0.572 | 0.437 | 0.552 | 0.511 | 0.479 |  |  | 0.683 | 0.554 | 0.578 | 0.547 | 0.643 | 0.523 | 0.764 |  | 1.07 | 0.85 | 0.718
